# Results taken from PubChem BioAssay (NCI).
# Where “and” joins values, the source holds several entries; their conditions need not be identical. Equal entries are not always repeated.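 Step 1: Grow cells in 96-well plates. Step 2: Expose to compound for 48 hours at 5 concentrations. Step 3: Interpolate endpoints linearly; if unreached, use highest concentration. GI50 is the concentration that inhibits growth by half. Definition used: TGI = concentration required for complete inhibition of growth.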
# Assays:
# Assay in all cases: inhibition of tumour cell growth, NCI panel, 48 h
# A498 renal = tested on: A498 renal
# CCRF-CEM leukemia = tested on: CCRF-CEM leukemia
# COLO 205 colon = tested on: COLO 205 colon
# K-562 leukemia = tested on: K-562 leukemia
# M14 melanoma = tested on: M14 melanoma
# RPMI-8226 leukemia = tested on: RPMI-8226 leukemia
# SF-268 CNS = tested on: SF-268 CNS
# SNB-19 CNS = tested on: SNB-19 CNS
# TK-10 renal = tested on: TK-10 renal
# UACC-257 melanoma = tested on: UACC-257 melanoma
Compound,GI50 (A498 renal),TGI (A498 renal),GI50 (CCRF-CEM leukemia),TGI (CCRF-CEM leukemia),GI50 (COLO 205 colon),TGI (COLO 205 colon),GI50 (K-562 leukemia),TGI (K-562 leukemia),GI50 (M14 melanoma),TGI (M14 melanoma),GI50 (RPMI-8226 leukemia),TGI (RPMI-8226 leukemia),GI50 (SF-268 CNS),TGI (SF-268 CNS),GI50 (SNB-19 CNS),TGI (SNB-19 CNS),GI50 (TK-10 renal),TGI (TK-10 renal),GI50 (UACC-257 melanoma),TGI (UACC-257 melanoma)
COC(=O)[C@]12CC[C@@H](C)[C@H](C)[C@@H]1C1=CC[C@@H]3[C@@]4(C)C[C@@H](OC(=O)c5ccco5)[C@H](O)[C@@](C)(CO)[C@@H]4[C@H](O)C[C@@]3(C)[C@]1(C)CC2,2.5 µM,7.75 µM,2.41 µM,5.77 µM,1.82 µM,3.44 µM,2.35 µM,5.42 µM,2.26 µM,4.74 µM,2.55 µM,7.56 µM,3.26 µM,14.2 µM,3.47 µM,15 µM,2.49 µM,7.85 µM,2.87 µM,7.55 µM
C=CCN1C(=O)/C(=c2\sc3n(c2=O)C2C(NN=3)N(CC)C(=O)N2CC)c2ccccc21 (centres undefined),0.246 µM,1.17 µM,0.469 µM,> 100 µM,0.549 µM,> 20.4 µM,0.414 µM,> 100 µM,0.446 µM,> 100 µM,0.657 µM,> 100 µM,1.26 µM,> 100 µM,0.973 µM,> 74.9 µM,1.85 µM,> 20.5 µM,–,> 100 µM
N/C(=N\O)c1ncc(-c2ccc(C(F)(F)F)cc2)c(NC2CCCCCC2)n1,1.96 µM,15.8 µM,2.46 µM,11.8 µM,3.44 µM,10.6 µM,4.36 µM and 1.71 µM,11.8 µM,9.68 µM and 3.24 µM,13.9 µM,8.66 µM and 2.66 µM,9.54 µM,3.64 µM,15.7 µM,3.27 µM,13.8 µM,2.49 µM,9.73 µM,3.23 µM,13.2 µM
CCOc1ccc(Cc2nccc3cc(OCC)c(OCC)cc23)cc1OCC,0.763 µM,19.9 µM,8.45 µM,65.1 µM,4.28 µM,19 µM,3.54 µM,49.9 µM,9.41 µM,23.5 µM,2.01 µM,22.4 µM,11.3 µM,36.7 µM,10.7 µM,31.8 µM,11 µM,32.5 µM,3.34 µM,14.6 µM
NC(=O)c1ccccc1NC(=O)C(=O)C(C(=O)c1ccc2ccccc2c1)C1OC(=O)c2ccccc21 (centres undefined),–,> 100 µM,–,77.6 µM,–,24.6 µM,–,83.9 µM,–,30 µM,–,48.1 µM,–,37.1 µM,–,20.7 µM,–,48.9 µM,–,37.4 µM
CCCNc1nc(N(C)O)nc(N(C)O)n1,9.51 µM,> 62.6 µM,0.432 µM,5.46 µM,2.23 µM,32.2 µM,2.24 µM,> 100 µM,2.05 µM,> 29.4 µM,0.689 µM,4.46 µM,1.39 µM,> 56.6 µM,4.07 µM,> 100 µM,1.44 µM,> 100 µM,4.13 µM,> 46.2 µM
O=C(CCCn1c2c(sc3ncccc32)c(=O)n2nnc(-c3ccccc3)c12)NCCc1cnc[nH]1,6.84 µM,22.6 µM,0.222 µM,4.48 µM,6.28 µM,23.5 µM,0.31 µM,15.6 µM,3.5 µM,19.4 µM,5.15 µM,35.7 µM,11.7 µM,29.1 µM,10.8 µM,33.7 µM,13.6 µM,27.9 µM,18.3 µM,35.6 µM
COC(=O)CCC(NC(=S)N/N=C(\C)c1ccccn1)C(=O)OC (centres undefined),–,> 100 µM,–,> 100 µM,–,> 100 µM,–,> 100 µM,–,> 100 µM,–,> 100 µM,–,> 100 µM,–,> 100 µM,–,> 100 µM,–,> 100 µM
Nc1nnc2nc(CC(=O)/C=C/c3ccccc3)c(=O)[nH]n12,–,> 100 µM,–,> 100 µM,–,> 100 µM,–,> 100 µM,–,> 100 µM,–,> 100 µM,–,> 100 µM,–,> 100 µM,–,> 100 µM,–,> 100 µM
O=C(c1cc(=O)c2ccc(O)cc2o1)c1ccc(Cl)cc1Cl,–,> 100 µM,–,39.6 µM,–,> 38.3 µM,–,> 35.5 µM,–,71.3 µM,–,> 72.7 µM,–,> 100 µM,–,> 100 µM,–,> 100 µM,–,> 71.9 µM
COc1cc2cc3c4c(cc(OC)c(OC)c4c2cc1OC)CCN3C(=O)CCCC(=O)O,–,> 100 µM,–,> 100 µM,–,> 100 µM,–,> 100 µM,–,> 100 µM,–,> 100 µM,–,> 100 µM,–,> 100 µM,–,> 100 µM,–,> 100 µM
O=C1NC(=NCc2cccs2)SC1Cc1ccc2ncccc2c1 (centres undefined),13.1 µM,> 25 µM,11.7 µM,> 25 µM,10.2 µM,> 25 µM,17.3 µM,> 25 µM,11 µM,> 25 µM,16.9 µM,> 25 µM,> 23 µM,> 25 µM,> 25 µM,> 25 µM,> 25 µM,> 25 µM,15.5 µM,> 25 µM
COC1=C(OC)C(=O)C(/C=C(\C)C(=O)O)=C(C)C1=O,> 100 µM,> 100 µM,67 µM,> 100 µM,> 100 µM,> 100 µM,> 100 µM,> 100 µM,> 100 µM,> 100 µM,> 100 µM,> 100 µM,> 100 µM,> 100 µM,> 100 µM,> 100 µM,> 100 µM,> 100 µM,> 100 µM,> 100 µM
CC1C2Cc3ccc(O)cc3C1(C)CCN2C (centres undefined),–,> 100 µM,–,> 100 µM,–,> 100 µM,–,> 100 µM,–,> 100 µM,–,> 100 µM,–,> 100 µM,–,> 100 µM,–,> 100 µM,–,> 100 µM
Oc1nc(NCCc2ccccc2)sc1/C=C1\C=Nc2ncccc21,1.95 µM and 1.84 µM,4.19 µM and 4.45 µM,3.31 µM and 2.42 µM,13.9 µM and 7.8 µM,1.93 µM and 2.96 µM,5.95 µM and 11 µM,4.12 µM and 4.7 µM,20 µM and 79.6 µM,3.72 µM and 3.49 µM,12.5 µM and 10.4 µM,3.21 µM and 2.99 µM,12.5 µM and 16.1 µM,2.72 µM and 2.63 µM,9.07 µM and 8.87 µM,2.47 µM and 2.82 µM,11.2 µM and 18.7 µM,3.59 µM and 3.04 µM,15.5 µM and 17.7 µM,3.49 µM and 3.36 µM,8.68 µM and 8.42 µM
Nc1nc(N)c2cc(CNc3ccc(Cl)c(Cl)c3)ccc2n1,1.76 µM,8.54 µM,0.395 µM,1.88 µM,1.11 µM,2.33 µM,0.0588 µM,1.45 µM,0.13 µM,1.7 µM,1.61 µM,3.62 µM,0.544 µM,1.85 µM,0.822 µM,2.09 µM,1.42 µM,2.73 µM,0.891 µM,2.24 µM
O=C(Oc1cccnc1)c1ccccc1Nc1ccnc(C(F)(F)F)c1,2.48 µM,13.1 µM,0.0334 µM,> 100 µM,0.156 µM,0.363 µM,0.0426 µM,> 100 µM,0.0536 µM,3.11 µM,0.0563 µM,7.22 µM,0.333 µM,14.4 µM,0.54 µM,> 100 µM,0.369 µM,31.8 µM,35.7 µM,> 100 µM
CCCCCCN(CCCCCC)CCCNc1nccc2ccccc12,1.08 µM,2.8 µM,2.47 µM,10.7 µM,1.48 µM,3.07 µM,1.95 µM,5.18 µM,1.42 µM,2.89 µM,1.73 µM,4.11 µM,2.53 µM,8.51 µM,2.09 µM,6.01 µM,1.47 µM,3.02 µM,1.84 µM,3.54 µM
C/C(CN1C(=O)c2ccccc2C1=O)=N\NS(=O)(=O)c1ccccc1,–,> 100 µM,–,> 100 µM,–,> 100 µM,–,> 100 µM,–,> 100 µM,–,> 100 µM,–,> 100 µM,–,> 100 µM,–,> 100 µM,–,> 100 µM
CCOc1ccccc1NC(=O)C(=O)CC(=O)C1=C(C)Nc2ccccc2S1,–,> 100 µM,–,> 100 µM,–,> 100 µM,–,> 76.4 µM,–,> 100 µM,–,> 100 µM,–,> 100 µM,–,> 100 µM,–,> 100 µM,–,> 100 µM
